In patent US6914045B2, “Glycopeptide antibiotics” (Wyeth Holdings Corporation, priority 2001, dated 2005):

What was measured:
[1] = tested on: Enterococcus sp.; assay: in vitro antibacterial evaluation, MIC by broth dilution; format: cell-based; conditions: broth dilution, 18 hours at 35° C.
Outline: (§1)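 Broth dilution per NCCLS M7-A2 in Mueller-Hinton II medium, inoculum 5×10^5 CFU/mL, antibiotic range 64-0.06 μg/mL. MIC taken as lowest concentration inhibiting growth; Gram-positive panel includes recent clinical isolates resistant to methicillin, penicillin and/or vancomycin.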

[2] = tested on: Staphylococcus sp.; assay: as above; format: cell-based; conditions: broth dilution, 18 hours at 35° C.
Outline: as §1

[3] = tested on: Streptococcus sp.; assay: as above; format: cell-based; conditions: broth dilution, 18 hours at 35° C.
Outline: as §1

[4] = tested on: Staphylococcus aureus-SMITH (GC 4543); assay: acute lethal infection in mice; format: in vivo; conditions: acute lethal infection, female CD-1 mice, intraperitoneal challenge, intravenous 30 min. after infection, 7 day survival
Outline: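 Intraperitoneal challenge of female CD-1 mice with a bacterial dose lethal to untreated animals within 24-48 hr; single iv treatment 30 min later, 5 mice per dose level. Survival is scored at day 7 and pooled from three experiments to give the median effective dose.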

[5] = clinical pathology (serum clinical chemistry) in mice; format: in vivo; conditions: CD-1 mice, 20 mg/kg intravenously daily for 9 days, sera day 10
Method: 20-day-old CD-1 mice were divided into a vehicle control group (5 mice) and a treatment group (5 mice). Samples of glycopeptide antibiotics were administered at 20 mg/kg intravenously daily for 9 days.

[6] = anatomic pathology (histopathology of heart and kidney) in mice; format: in vivo; conditions: CD-1 mice, 20 mg/kg intravenously daily for 9 days, necropsy day 10, microscopic histopathology
Method: Samples of tissues from necropsied mice were formalin-fixed, paraffin-embedded, sectioned, stained with hematoxylin and eosin, and examined microscopically. Histopathologic findings were recorded. These findings were subjectively graded on a scale corresponding to slight, mild, moderate, marked and severe as compared to untreated controls.

[7] = tested on: Escherichia coli; assay: in vitro antibacterial evaluation, MIC by broth dilution; format: cell-based; conditions: 18 hours at 35° C.

COc1ccc2cc(COCC3OC(OC4C(CO)OC(Oc5ccc(CC6NC(=O)C(C(C)c7ccccc7)NC(=O)CNC(=O)C(CO)NC(=O)C(C(O)C7CNC(=N)N7C7OC(CO)C(O)C(O)C7O)NC(=O)C(C(O)C7CNC(=N)N7)NC6=O)cc5)C(O)C4O)C(O)C(O)C3O)ccc2c1 (stereo not drawn) [Example 230, Cyclo[glycyl-β-methylphenylalanyl-O-[4-O-[6-O-[(6-methoxy-2-naphthyl)methyl]hexopyranosyl]hexopyranosyl]tyrosyl-3-(2-iminoimidazolidin-4-yl)seryl-3-(3-hexopyranosyl-2-iminoimidazolidin-4-yl)serylseryl]]
8 µg/mL: MIC Enterococcus avium (GC 4558) [1] | MIC Enterococcus faecalis (ATCC 29212) [1] | MIC Enterococcus faecalis (GC 2242) [1] | MIC Enterococcus faecalis (GC 3059) [1] | MIC Enterococcus faecalis (GC 4552) [1] | MIC Enterococcus faecalis (GC 4553) [1] | MIC Enterococcus faecalis (GC 4554) [1] | MIC Enterococcus faecium (GC 2243) [1] | MIC Enterococcus faecium (GC 4556) [1] | MIC Enterococcus faecalis (ATCC 29212) ([1]; inoculum 5×10^5 CFU/mL, strain ATCC 29212) | MIC Enterococcus faecalis (GC 2242) ([1]; inoculum 5×10^5 CFU/mL, strain GC 2242) | MIC Enterococcus faecium (GC 2243) ([1]; inoculum 5×10^5 CFU/mL, strain GC 2243) | MIC Enterococcus faecalis (GC 3059) ([1]; inoculum 5×10^5 CFU/mL, strain GC 3059) | MIC Enterococcus faecalis (GC 4552) ([1]; inoculum 5×10^5 CFU/mL, strain GC 4552) | MIC Enterococcus faecalis (GC 4553) ([1]; inoculum 5×10^5 CFU/mL, strain GC 4553) | MIC Enterococcus faecalis (GC 4554) ([1]; inoculum 5×10^5 CFU/mL, strain GC 4554) | MIC Enterococcus faecium (GC 4556) ([1]; inoculum 5×10^5 CFU/mL, strain GC 4556) | MIC Enterococcus avium (GC 4558) ([1]; inoculum 5×10^5 CFU/mL, strain GC 4558)
0.25 µg/mL: MIC Streptococcus pyogenes (GC 4563) [3] | MIC Streptococcus pyogenes (GC 4563) ([3]; inoculum 5×10^5 CFU/mL, strain GC 4563)
64 µg/mL: MIC Escherichia coli (ATCC 25922) [7]
0.12 mg/kg: median effective dose (ED50), Staphylococcus aureus-SMITH (GC 4543) [4]
+++: Anatomical Pathology (Day 10), Kidney [6]
0.5 µg/mL: MIC Coagulase Negative Staphylococcus (GC 4548) [2] | MIC Coagulase Negative Staphylococcus (GC 6257) [2] | MIC Coagulase Negative Staphylococcus (GC 4548) ([2]; strain GC 4548) | MIC Coagulase Negative Staphylococcus (GC 6257) ([2]; strain GC 6257) | MIC Streptococcus agalactiae (GC 4564) [3] | MIC Streptococcus agalactiae (GC 4564) ([3]; inoculum 5×10^5 CFU/mL, strain GC 4564)
>64 µg/mL: MIC Escherichia coli (GC 4559) [7]
2 µg/mL: MIC Enterococcus faecium (GC 4557) [1] | MIC Enterococcus faecium (GC 4557) ([1]; inoculum 5×10^5 CFU/mL, strain GC 4557) | MIC Coagulase Negative Staphylococcus (GC 4551) [2] | MIC Staphylococcus aureus (ATCC 29213) [2] | MIC Staphylococcus aureus (GC 1131) [2] | MIC Staphylococcus aureus (GC 3051) [2] | MIC Staphylococcus aureus (GC 3053) [2] | MIC Staphylococcus aureus (GC 4542) [2] | MIC Staphylococcus aureus (GC 4544) [2] | MIC Staphylococcus aureus (ATCC 29213) ([2]; strain ATCC 29213) | MIC Staphylococcus aureus (GC 1131) ([2]; strain GC 1131) | MIC Staphylococcus aureus (GC 3051) ([2]; strain GC 3051) | MIC Staphylococcus aureus (GC 3053) ([2]; strain GC 3053) | MIC Staphylococcus aureus (GC 4542) ([2]; strain GC 4542) | MIC Staphylococcus aureus (GC 4544) ([2]; strain GC 4544) | MIC Coagulase Negative Staphylococcus (GC 4551) ([2]; strain GC 4551)
+179%: Clinical Chemistry (Day 10) % of Control, BUN [5]
0.12 µg/mL: MIC Streptococcus pneumoniae (ATCC 6301) [3] | MIC Streptococcus pneumoniae (GC 4565) [3] | MIC Streptococcus pneumoniae (ATCC 6301) ([3]; inoculum 5×10^5 CFU/mL, strain ATCC 6301) | MIC Streptococcus pneumoniae (GC 4565) ([3]; inoculum 5×10^5 CFU/mL, strain GC 4565)
+124%: Clinical Chemistry (Day 10) % of Control, Creatinine [5]
4 µg/mL: MIC Enterococcus faecalis (GC 2691) [1] | MIC Enterococcus faecalis (GC 6189) [1] | MIC Enterococcus faecalis (GC 2691) ([1]; inoculum 5×10^5 CFU/mL, strain GC 2691) | MIC Enterococcus faecalis (GC 6189) ([1]; inoculum 5×10^5 CFU/mL, strain GC 6189)
1 µg/mL: MIC Coagulase Negative Staphylococcus (GC 4547) [2] | MIC Coagulase Negative Staphylococcus (GC 4549) [2] | MIC Staphylococcus aureus (GC 4541) [2] | MIC Staphylococcus aureus (GC 4545) [2] | MIC Staphylococcus aureus-SMITH (GC 4543) [2] | MIC Staphylococcus haemolyticus (GC 4546) [2] | MIC Staphylococcus aureus (GC 4541) ([2]; strain GC 4541) | MIC Staphylococcus aureus-SMITH (GC 4543) ([2]; strain GC 4543) | MIC Staphylococcus aureus (GC 4545) ([2]; strain GC 4545) | MIC Staphylococcus haemolyticus (GC 4546) ([2]; strain GC 4546) | MIC Coagulase Negative Staphylococcus (GC 4547) ([2]; strain GC 4547) | MIC Coagulase Negative Staphylococcus (GC 4549) ([2]; strain GC 4549) | MIC Escherichia coli (GC 4560) [7]
0: Anatomical Pathology (Day 10), Heart [6]
<0.06 µg/mL: MIC Streptococcus pneumoniae (GC 1894) [3] | MIC Streptococcus pneumoniae (GC 1894) ([3]; inoculum 5×10^5 CFU/mL, strain GC 1894)
